pIC50: −log10 of the molar value. Read-outs that look alike come from different tables or passages of the source.
Key:
[1] = molecular target: T1, partially purified pig heart adenosine kinase (Sus scrofa, UniProt A0A5G2R0F5); test: Adenosine kinase (AK) inhibition; format: biochemical
T1 construct: partially purified pig heart adenosine kinase; from tissue; host or cells: pig heart
Method: Adenosine kinase activity was measured essentially as described by Yamada et al. Biochim. Biophys. Acta 660, 36-43 […] with a few minor modifications. Assay mixtures contained 50 mM TRIS-maleate buffer, pH 7.0, 0.1% BSA, 1 mM ATP 1 mM MgCl2, 0.5 μM [U-^14 C]adenosine (400-600 mCi/mmol) and varying duplicate concentrations of inhibitor. The reactions were initiated by addition of approximately 0.1 μU partially purified pig heart adenosine kinase, where one unit is defined as that amount of enzyme required to phosphorylate 1 μmol adenosine per minute. The reactions were incubated for 20 minutes at 37° C. The assay was quenched upon spotting 30 μL aliquots onto 2 cm^2 pieces of Whatman DE81 anion exchange paper. The paper squares were washed for 3 minutes in 6 L distilled/deionized water to remove the unreacted adenosine. […] The amount of ^14 C-AMP was quantified by scintillation counting.

[2] = tested on: male SA rats; test: Anticonvulsant activity, maximal electroshock (MES) model, suppression of hind limb tonic extension; format: in vivo; conditions: Rattus norvegicus, 1 h, one hour before seizure testing
[3] = tested on: carrageenan-induced paw swelling in rats; test: Anti-inflammatory activity, carrageenan paw swelling; format: in vivo, rat; conditions: po, 10 mg/kg, paw swelling 3 hours after carrageenan, vs vehicle
Method: Carrageenan (Type λ) was suspended in sterile PBS at 1% (w/v), autoclaved for 30 minutes, and stored at room temperature. Rats were pretreated with vehicle or AK inhibitor (10 mg/kg) by oral gavage or i.p. administration and the volume of the left hind paw was measured using a water displacement plethysmometer (Stoelting Co., Wood Dale, Ill.). One hour after oral treatment or 30 minutes after i.p. treatment, the rats were briefly anesthetized, and 0.1 ml of the carrageenan solution was injected subcutaneously into the planar surface of the left hind paw. The ensuing paw swelling was measured by plethysmometry after 3 hours. The paw volume in millileters was subtracted from the pre-injection paw volume. Data are presented as the percent inhibition of paw swelling in AK inhibitor treated animals, compared to vehicle treated control animals.

[4] = ip, >5 or <5 = fewer or more than 50% inhibited in initial screen at 5 mg/kg ip
[5] = po, fasted, read-out: Anticonvulsant ED50 (MES), po
[6] = ip, >5 or <5 = fewer or more than 50% inhibited in initial screen at 5 mg/kg ip, read-out: Anticonvulsant ED50 (MES), ip

T1 sequence (A0A5G2R0F5 1-362): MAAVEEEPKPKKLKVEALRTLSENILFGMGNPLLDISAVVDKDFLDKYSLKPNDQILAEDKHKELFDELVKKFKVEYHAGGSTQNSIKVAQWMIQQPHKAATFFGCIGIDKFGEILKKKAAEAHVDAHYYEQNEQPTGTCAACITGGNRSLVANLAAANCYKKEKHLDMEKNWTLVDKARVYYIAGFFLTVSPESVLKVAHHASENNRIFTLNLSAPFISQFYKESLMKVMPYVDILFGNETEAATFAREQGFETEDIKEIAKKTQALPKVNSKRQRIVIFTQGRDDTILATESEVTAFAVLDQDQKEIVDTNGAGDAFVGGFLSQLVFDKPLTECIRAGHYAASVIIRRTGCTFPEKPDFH

Row | SMILES | pIC50 [1] | ED50 at 5 mg/kg [2, 4] | further results
1 | CC(=O)Nc1ccc(Nc2ncnc3c2c(-c2ccccc2)cn3[C@@H]2O[C@H](C)[C@@H](O)[C@H]2O)cc1 [compound 32] | 9.30 | 5 mg/kg | ED50 [2, 5]: > 5 mg/kg
2 | C[C@H]1O[C@@H](n2cc(-c3ccccc3)c3c(Nc4ccc(S(N)(=O)=O)cc4)ncnc32)[C@H](O)[C@@H]1O [compound 34] | 8.30 | 5 mg/kg | Carrageenan Paw (% inh) [3]: -0.2%
3 | C[C@H]1O[C@@H](n2cc(-c3ccccc3)c3c(NCc4ccccc4)ncnc32)[C@H](O)[C@@H]1O [compound 38] | 7.52 |  | ED50 [2, 6]: > 5 mg/kg
4 | CSc1ccc(Nc2ncnc3c2c(-c2ccccc2)cn3[C@@H]2O[C@H](C)[C@@H](O)[C@H]2O)cc1 [compound 40] | 8.70 | 5 mg/kg | ED50 [2, 5]: > 10 mg/kg
5 | C[C@H]1O[C@@H](n2c(Br)c(-c3ccccc3)c3c(Nc4ccc(F)cc4)ncnc32)[C@H](O)[C@@H]1O [compound 41] | 7.38 | > 5 mg/kg | 
6 | C[C@H]1O[C@@H](n2cc(-c3ccccc3)c3c(Nc4ccc(N)cc4)ncnc32)[C@H](O)[C@@H]1O [compound 43] | 8.52 | < 5 mg/kg | 
7 | C[C@H]1O[C@@H](n2nc(-c3ccccc3)c3c(Nc4ccccc4)ncnc32)[C@H](O)[C@@H]1O [compound 86] | 8.35 | 12.3 mg/kg | ED50 [2, 5]: > 20 mg/kg
8 | [N-]=[N+]=NC[C@H]1O[C@@H](n2nc(-c3ccccc3)c3c(Nc4ccccc4)ncnc32)[C@H](O)[C@@H]1O [compound 87] | 8.35 | 2.31 mg/kg | ED50 [2, 5]: > 2.3 mg/kg
9 | OC[C@H]1O[C@@H](n2nc(-c3ccccc3)c3c(Nc4ccccc4)ncnc32)[C@H](O)[C@@H]1O [compound 88] | 8.30 |  | ED50 [2, 6]: 2.62 mg/kg; ED50 [2, 5]: > 2.6 mg/kg
10 | COc1ccc(Nc2ncnc3c2c(-c2ccccc2)nn3[C@@H]2O[C@H](C)[C@@H](O)[C@H]2O)cc1 [compound 89] | 7.77 | 5 mg/kg | 
11 | COc1ccc(Nc2ncnc3c2c(-c2ccccc2)nn3[C@@H]2O[C@H](CN=[N+]=[N-])[C@@H](O)[C@H]2O)cc1 [compound 90] | 8.10 | > 3.4 mg/kg | 
12 | C[C@H]1O[C@@H](n2nc(-c3ccccc3)c3c(Nc4ccc(Cl)cc4)ncnc32)[C@H](O)[C@@H]1O [compound 91] |  |  | pIC50 ([1]; read-out: AK Inhibition (IC50), 0.5 μM [U-14C]adenosine, pH 7.0, 37° C., 20 minutes): 7.96
13 | [N-]=[N+]=NC[C@H]1O[C@@H](n2nc(-c3ccccc3)c3c(Nc4ccc(Cl)cc4)ncnc32)[C@H](O)[C@@H]1O [compound 92] | 7.77 |  | 
14 | Cc1ccc(-c2nn([C@@H]3O[C@H](CN=[N+]=[N-])[C@@H](O)[C@H]3O)c3ncnc(Nc4ccccc4)c23)cc1 [compound 93] | 7.70 | > 5 mg/kg | 
15 | COc1ccc(-c2nn([C@@H]3O[C@H](CN=[N+]=[N-])[C@@H](O)[C@H]3O)c3ncnc(Nc4ccccc4)c23)cc1 [compound 94] | 8.52 | > 5 mg/kg | 
16 | COc1ccc(-c2nn([C@@H]3O[C@H](CN=[N+]=[N-])[C@@H](O)[C@H]3O)c3ncnc(Nc4ccc(C)cc4)c23)cc1 [compound 95] |  | > 5 mg/kg | 
17 | [N-]=[N+]=NC[C@H]1O[C@@H](n2nc(-c3ccc(Cl)cc3)c3c(Nc4ccccc4)ncnc32)[C@H](O)[C@@H]1O [compound 96] | 7.82 | > 5 mg/kg | 
18 | [N-]=[N+]=NC[C@H]1O[C@@H](n2nc(-c3cccs3)c3c(Nc4ccccc4)ncnc32)[C@H](O)[C@@H]1O [compound 97] |  |  | pIC50 ([1]; 0.5 μM [U-14C]adenosine, pH 7.0, 37° C., 20 minutes, read-out: AK Inhibition (IC50)): 8.00; ED50 [2, 6]: > 5 mg/kg

From patent publication US5721356A, “Orally active adenosine kinase inhibitors” (Gensia, Inc., priority 1995, dated 1998)
